Earlier results as cited in patent US7459569B2, “Method of forming iron hydroxypyrone compounds” (Vitra Pharmaceuticals Limited, priority 2002, dated 2008).

Settings: given on an empty stomach

## O=S(=O)([O-])[O-].[Fe+2] [ferrous sulphate]
  absorption rate: 30%
